# Molecular target: α4β7 integrin (Homo sapiens (Human), UniProt P13612+P26010)
# Assay: α4β7 Integrin Cell Capture Assay
# Format: cell-based
# Conditions: RPMI8866 cells captured on MadCAM-1 extracellular domain-coated plate
# Procedure: α4β7 Integrin Cell Capture Assay
# The potency of inhibitors in preventing α4β7 integrin interaction with MadCAM-1 was measured by monitoring the capture of α4β7 integrin expressing cells on a recombinant MadCAM-1 extracellular domain-coated plate. […] The plates were then washed with PBS and blocked with 3% BSA for 2 hours before being washed again.
# RPM18866 cells were spun down and re-suspended in assay medium (DMEM+0.5% FBS+0.5 mM MnCl2) at a density of 0.5×10^6 cells/mL. […] The plates were incubated at 37° C. for 1 hour. 50 μL of cells were transferred to the blocked, MadCAM-1-coated plates and incubated for 30 minutes at 37° C. […] The plates were incubated for 90 minutes at room temperature. The plates were then washed 3 times with 70 μL of PBS per well and imaged on a Cellomics ArrayScan instrument. The cells that were bound to the plate were counted and plotted against the compound concentration to determine the EC50 of the test compounds.
# Sequence of α4β7 integrin (P13612 34-1032): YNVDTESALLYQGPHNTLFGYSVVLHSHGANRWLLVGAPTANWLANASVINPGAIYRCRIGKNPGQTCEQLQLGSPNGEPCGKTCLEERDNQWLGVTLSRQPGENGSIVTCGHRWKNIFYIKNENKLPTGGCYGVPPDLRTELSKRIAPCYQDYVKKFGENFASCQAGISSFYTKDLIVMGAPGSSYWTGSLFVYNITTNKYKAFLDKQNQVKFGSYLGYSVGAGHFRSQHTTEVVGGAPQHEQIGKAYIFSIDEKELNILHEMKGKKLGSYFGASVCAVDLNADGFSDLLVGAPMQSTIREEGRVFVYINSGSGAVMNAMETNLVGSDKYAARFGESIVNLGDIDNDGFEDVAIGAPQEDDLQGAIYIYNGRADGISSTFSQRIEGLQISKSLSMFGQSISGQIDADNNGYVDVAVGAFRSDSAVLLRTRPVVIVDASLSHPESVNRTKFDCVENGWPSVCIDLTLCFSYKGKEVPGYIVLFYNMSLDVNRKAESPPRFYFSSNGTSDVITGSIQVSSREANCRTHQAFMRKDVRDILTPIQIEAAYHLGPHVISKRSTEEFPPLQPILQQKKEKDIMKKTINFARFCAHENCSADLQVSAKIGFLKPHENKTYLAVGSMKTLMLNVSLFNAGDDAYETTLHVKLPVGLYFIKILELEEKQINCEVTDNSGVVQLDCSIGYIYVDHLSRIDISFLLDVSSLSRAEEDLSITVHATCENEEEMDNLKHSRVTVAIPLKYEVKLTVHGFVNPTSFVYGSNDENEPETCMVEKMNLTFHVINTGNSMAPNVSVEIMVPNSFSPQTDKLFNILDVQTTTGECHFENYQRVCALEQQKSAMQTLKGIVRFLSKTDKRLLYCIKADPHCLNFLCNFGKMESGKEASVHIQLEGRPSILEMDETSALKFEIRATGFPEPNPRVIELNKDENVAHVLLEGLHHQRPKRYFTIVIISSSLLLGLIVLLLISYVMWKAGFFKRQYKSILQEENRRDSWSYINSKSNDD
# Sequence of α4β7 integrin (P26010 20-798): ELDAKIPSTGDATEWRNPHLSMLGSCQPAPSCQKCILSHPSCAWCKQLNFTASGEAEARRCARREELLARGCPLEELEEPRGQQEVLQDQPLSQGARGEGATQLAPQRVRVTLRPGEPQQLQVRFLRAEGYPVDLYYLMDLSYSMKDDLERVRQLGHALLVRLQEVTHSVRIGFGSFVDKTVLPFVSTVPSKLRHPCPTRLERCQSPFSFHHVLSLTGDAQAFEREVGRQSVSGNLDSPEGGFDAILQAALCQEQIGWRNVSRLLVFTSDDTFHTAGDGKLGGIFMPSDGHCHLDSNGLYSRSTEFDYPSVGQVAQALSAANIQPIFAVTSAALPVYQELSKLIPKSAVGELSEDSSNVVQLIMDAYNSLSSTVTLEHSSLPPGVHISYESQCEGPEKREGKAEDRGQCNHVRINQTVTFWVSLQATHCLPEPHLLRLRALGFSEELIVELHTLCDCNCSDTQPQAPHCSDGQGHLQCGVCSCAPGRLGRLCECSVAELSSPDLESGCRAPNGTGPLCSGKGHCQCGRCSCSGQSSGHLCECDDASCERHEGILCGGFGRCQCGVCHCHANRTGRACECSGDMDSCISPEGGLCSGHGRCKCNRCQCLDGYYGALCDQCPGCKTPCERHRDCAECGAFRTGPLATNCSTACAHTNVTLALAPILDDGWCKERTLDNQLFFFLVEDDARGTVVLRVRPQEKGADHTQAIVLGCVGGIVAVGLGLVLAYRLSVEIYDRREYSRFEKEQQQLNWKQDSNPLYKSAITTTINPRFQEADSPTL
row,Compound,EC50 [nM]
1,Cn1c(=O)n(-c2ccc(C[C@H](NC(=O)c3c(F)cc(N4CCOC[C@@H]4C(F)(F)F)cc3F)C(=O)O)c3cccnc23)c(=O)c2cnccc21 [Example 473],0.196
2,CC[C@@H](Nc1cc(F)c(C(=O)N[C@@H](Cc2ccc(-n3c(=O)c4ccncc4n(C)c3=O)c3ncccc23)C(=O)O)c(F)c1)C(F)(F)F [Example 475],0.157
3,Cc1nc(C)n(C)c(=O)c1-c1ccc(C[C@H](NC(=O)c2c(F)cc(N3CCOC[C@@H]3C(F)(F)F)cc2F)C(=O)O)c2cccnc12 [Example 440],0.25
4,Cc1cc(N2CCOC[C@@H]2C(F)(F)F)cc(F)c1C(=O)N[C@@H](Cc1ccc(-c2c(C)c(C(F)(F)F)cn(C)c2=O)c2ncccc12)C(=O)O [Example 457],0.238
5,Cc1cc(N2CCOC[C@@H]2C(F)(F)F)cc(F)c1C(=O)N[C@@H](Cc1ccc(-c2cc(N(C)C)c(C)n(C)c2=O)c2ncccc12)C(=O)O [Example 450],1.02
6,Cn1c(=O)c(-c2ccc(C[C@H](NC(=O)c3c(F)cc(N4CCOC[C@@H]4C(F)(F)F)cc3F)C(=O)O)c3cccnc23)nc2ccccc21 [Example 484],0.143
7,COc1cc2c(=O)n(-c3ccc(C[C@H](NC(=O)c4c(F)cc(N5CCOC[C@@H]5C(F)(F)F)cc4F)C(=O)O)c4cccnc34)c(=O)n(C)c2cn1 [Example 428],0.18
8,Cc1cc(N2CCOC[C@@H]2C(F)(F)F)cc(F)c1C(=O)N[C@@H](Cc1ccc(-n2c(=O)c3c(cnn3C)n(C)c2=O)c2ncccc12)C(=O)O [Example 413],0.529
9,CN1CCc2c(cc(-c3ccc(C[C@H](NC(=O)c4c(F)cc(N5CCOC[C@@H]5C(F)(F)F)cc4F)C(=O)O)c4cccnc34)c(=O)n2C)C1 [Example 437],0.261

# Same assay, conditions: Table 1; capture of α4β7 expressing RPM18866 cells on MadCAM-1 extracellular domain-coated plate
row,Compound,EC50 [nM]
1,"CCOCc1cc(OC)c(-c2c(F)cc(C[C@H](NC(=O)c3c(F)cccc3F)C(=O)O)c3cccnc23)c(OC)c1 [Example 40, (S)-2-(2,6-difluorobenzamido)-3-(8-(4-(ethoxymethyl)-2,6-dimethoxyphenyl)-7-fluoroquinolin-5-yl)propanoic acid]",8.6
2,"Cc1c(C(F)(F)F)cn(C)c(=O)c1-c1ccc(C[C@H](NC(=O)c2c(F)cc(N3CCOC[C@@H]3C(F)(F)F)cc2F)C(=O)O)c2cccnc12 [Example 106, (S)-2-(2,6-difluoro-4-((R)-3-(trifluoromethyl)morpholino)benzamido)-3-(8-(1,4-dimethyl-2-oxo-5-(trifluoromethyl)-1,2-dihydropyridin-3-yl)quinolin-5-yl)propanoic acid]",0.3
3,"N#Cc1ccc(-c2ccc(C[C@H](NC(=O)c3c(F)ccc(OC(F)F)c3F)C(=O)O)c3cccnc23)c(Cl)c1 [Example 16, (S)-3-(8-(2-chloro-4-cyanophenyl)quinolin-5-yl)-2-(3-(difluoromethoxy)-2,6-difluorobenzamido)propanoic acid]",67.4
4,"CC[C@@H](Nc1cc(F)c(C(=O)N[C@@H](Cc2ccc(-c3c(C)n(C)c4ccc(F)cc4c3=O)c3ncccc23)C(=O)O)c(F)c1)C(F)(F)F [Example 127, (S)-2-(2,6-difluoro-4-(((R)-1,1,1-trifluorobutan-2-yl)amino)benzamido)-3-(6-fluoro-1,2-dimethyl-4-oxo-1,4-dihydro-[3,8′-biquinolin]-5′-yl)propanoic acid]",9.3
5,"O=C(N[C@@H](Cc1ccc(-c2c(Cl)cc(F)cc2Cl)c2ncccc12)C(=O)O)c1c(F)cccc1F [Example 19, (S)-3-(8-(2,6-dichloro-4-fluorophenyl)quinolin-5-yl)-2-(2,6-difluorobenzamido)propanoic acid]",50
6,"CC[C@@H](Nc1cc(F)c(C(=O)N[C@@H](Cc2ccc(-c3nn(C)c(=O)cc3C)c3ncccc23)C(=O)O)c(F)c1)C(F)(F)F [Example 119, (S)-2-(2,6-difluoro-4-(((R)-1,1,1-trifluorobutan-2-yl)amino)benzamido)-3-(8-(1,4-dimethyl-6-oxo-1,6-dihydropyridazin-3-yl)quinolin-5-yl)propanoic acid]",20.5
7,"CC[C@@H](Nc1cc(F)c(C(=O)N[C@@H](Cc2ccc(-c3cnc(C)n(C)c3=O)c3ncccc23)C(=O)O)c(F)c1)C(F)(F)F [Example 118, (S)-2-(2,6-difluoro-4-(((R)-1,1,1-trifluorobutan-2-yl)amino)benzamido)-3-(8-(1,2-dimethyl-6-oxo-1,6-dihydropyrimidin-5-yl)quinolin-5-yl)propanoic acid]",1.5
8,"CC[C@@H](Nc1cc(F)c(C(=O)N[C@@H](Cc2ccc(-n3c(=O)c4cc(N(C)C)ccc4n(C)c3=O)c3ncccc23)C(=O)O)c(F)c1)C(F)(F)F [Example 108, (S)-2-(2,6-difluoro-4-(((R)-1,1,1-trifluorobutan-2-yl)amino)benzamido)-3-(8-(6-(dimethylamino)-1-methyl-2,4-dioxo-1,4-dihydroquinazolin-3(2H)-yl)quinolin-5-yl)propanoic acid]",1
9,"Cc1cc(C(F)(F)F)c(-c2ccc(C[C@H](NC(=O)c3c(F)cc(N4C[C@@H](C)OC[C@@H]4C(F)(F)F)cc3F)C(=O)O)c3cccnc23)c(=O)n1C [Example 136, (S)-2-(2,6-difluoro-4-((2R,5R)-2-methyl-5-(trifluoromethyl)morpholino)benzamido)-3-(8-(1,6-dimethyl-2-oxo-4-(trifluoromethyl)-1,2-dihydropyridin-3-yl)quinolin-5-yl)propanoic acid]",0.2
10,"CCOCc1cc(OC)c(-c2ccc(CC(NC(=O)c3c(F)cccc3F)C(=O)O)c3ccc(C(F)(F)F)nc23)c(OC)c1 (stereo not drawn) [Example 38, 2-(2,6-difluorobenzamido)-3-(8-(4-(ethoxymethyl)-2,6-dimethoxyphenyl)-2-(trifluoromethyl)quinolin-5-yl)propanoic acid]",29.7
11,"COc1cccc(F)c1C(=O)N[C@@H](Cc1ccc(-c2ccc(C#N)cc2Cl)c2ncccc12)C(=O)O [Example 23, (S)-3-(8-(2-chloro-4-cyanophenyl)quinolin-5-yl)-2-(2-fluoro-6-methoxybenzamido)propanoic acid]",46.7
12,"CC[C@@H](Nc1cc(F)c(C(=O)N[C@@H](Cc2ccc(-c3nc(C)c(C)n(C)c3=O)c3ncccc23)C(=O)O)c(F)c1)C(F)(F)F [Example 117, (S)-2-(2,6-difluoro-4-(((R)-1,1,1-trifluorobutan-2-yl)amino)benzamido)-3-(8-(4,5,6-trimethyl-3-oxo-3,4-dihydropyrazin-2-yl)quinolin-5-yl)propanoic acid]",0.7
13,"CC[C@@H](Nc1cc(F)c(C(=O)N[C@@H](Cc2ccc(-c3c(C(F)(F)F)cc(C)n(C)c3=O)c3ncccc23)C(=O)O)c(Cl)c1)C(F)(F)F [Example 144, (S)-2-(2-chloro-6-fluoro-4-(((R)-1,1,1-trifluorobutan-2-yl)amino)benzamido)-3-(8-(1,6-dimethyl-2-oxo-4-(trifluoromethyl)-1,2-dihydropyridin-3-yl)quinolin-5-yl)propanoic acid]",0.2

# Same assay, conditions: Table 2; capture of α4β7 expressing RPM18866 cells on MadCAM-1 extracellular domain-coated plate
row,Compound,EC50 [nM]
1,CC[C@@H](Nc1cc(F)c(C(=O)N[C@@H](Cc2ccc(-c3c(C(F)(F)F)cc(C4CC4)n(C)c3=O)c3ncccc23)C(=O)O)c(F)c1)C(F)(F)F [Example 163],0.4
2,CC[C@@H](Nc1cc(F)c(C(=O)N[C@@H](Cc2ccc(-c3cc(C(F)(F)F)cn(C)c3=O)c3ncccc23)C(=O)O)c(F)c1)C(F)(F)F [Example 210],1.9
3,CC[C@@H](Nc1cc(F)c(C(=O)N[C@@H](Cc2ccc(-c3c(C)c(C(F)(F)F)cn(C)c3=O)c3ncccc23)C(=O)O)c(F)c1)C(F)(F)F [Example 188],1.2
4,CC[C@@H](Nc1cc(F)c(C(=O)N[C@@H](Cc2ccc(-c3c(C(F)(F)F)cc(C)n(C)c3=O)c3nc(C(F)(F)F)ccc23)C(=O)O)c(F)c1)C(F)(F)F [Example 269],4.4
5,Cc1cc(C(F)(F)F)c(-c2ccc(C[C@H](NC(=O)c3c(F)cc(N4CC[C@H]4C(F)(F)F)cc3F)C(=O)O)c3cccnc23)c(=O)n1C [Example 298],7.9
6,C[C@H](NC(=O)c1cc(F)c(C(=O)N[C@@H](Cc2ccc(-c3ccc(C#N)cc3Cl)c3ncccc23)C(=O)O)c(F)c1)c1ccccc1 [Example 162],53.5
7,C[C@H](O)Cc1cc(F)c(C(=O)N[C@@H](Cc2ccc(-c3ccc(C#N)cc3Cl)c3ncccc23)C(=O)O)c(F)c1 [Example 286],47.3
8,CC[C@@H](Nc1cc(F)c(C(=O)N[C@@H](Cc2ccc(-c3ncccc3N(C)C)c3ncccc23)C(=O)O)c(F)c1)C(F)(F)F [Example 315],13.6
9,Cc1cc(C(F)(F)F)c(-c2ccc(C[C@H](NC(=O)c3c(F)cc(N4CC(C)OCC4C(F)(F)F)cc3F)C(=O)O)c3cccnc23)c(=O)n1C (stereo partly drawn) [Example 171],0.5
10,CC[C@@H](Nc1cc(F)c(C(=O)N[C@@H](Cc2ccc(-c3nccc(C)c3N(C)C)c3ncccc23)C(=O)O)c(F)c1)C(F)(F)F [Example 300],8.4
11,N#Cc1ccc(-c2ccc(C[C@H](NC(=O)c3c(Cl)cc4cc(C5CC5)[nH]c4c3Cl)C(=O)O)c3cccnc23)c(Cl)c1 [Example 228],57.8
12,N#Cc1ccc(-c2ccc(C[C@H](NC(=O)c3c(F)cc(C4=CCOCC4)cc3F)C(=O)O)c3cccnc23)c(Cl)c1 [Example 150],43.6
13,CC[C@@H](Nc1cc(F)c(C(=O)N[C@@H](Cc2ccc(-c3nccc(C)c3C(F)(F)F)c3ncccc23)C(=O)O)c(F)c1)C(F)(F)F [Example 252],3.1
14,O=C(N[C@@H](Cc1ccc(Nc2nccc3ccncc23)c2ncccc12)C(=O)O)c1c(Cl)cccc1Cl [Example 336],26.1
